Results reported in ChEMBL document CHEMBL2073986, “Impaired organic anion transport in kidney and choroid plexus of organic anion transporter 3 (Oat3 (Slc22a8)) knockout mice” (J Biol Chem, 2002).

Biological target: T1, Organic anion transporter 3 (Mus musculus, UniProt O88909)
T1 sequence (O88909 whole entry): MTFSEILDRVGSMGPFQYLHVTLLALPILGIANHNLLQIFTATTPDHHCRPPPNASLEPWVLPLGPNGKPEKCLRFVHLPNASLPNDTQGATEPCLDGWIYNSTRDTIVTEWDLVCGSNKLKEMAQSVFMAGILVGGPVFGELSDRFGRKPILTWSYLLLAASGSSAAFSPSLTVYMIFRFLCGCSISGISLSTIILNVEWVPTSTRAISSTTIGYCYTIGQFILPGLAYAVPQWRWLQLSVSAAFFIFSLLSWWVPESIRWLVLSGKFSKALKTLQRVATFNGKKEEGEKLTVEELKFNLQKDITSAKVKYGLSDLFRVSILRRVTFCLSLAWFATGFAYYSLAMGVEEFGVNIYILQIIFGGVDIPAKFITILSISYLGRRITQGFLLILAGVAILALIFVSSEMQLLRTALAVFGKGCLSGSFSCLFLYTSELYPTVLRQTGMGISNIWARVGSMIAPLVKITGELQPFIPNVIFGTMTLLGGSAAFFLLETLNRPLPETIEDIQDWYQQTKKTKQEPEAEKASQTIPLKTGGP
Assay: TP_TRANSPORTER: uptake in Xenopus laevis oocytes
Format: functional, cell-based
Details: oocyte

SMILES	Activity
Nc1ccc(C(=O)NCC(=O)O)cc1 [AMINOHIPPURIC ACID]	substrate [+]
C[C@]12CC[C@@H]3c4ccc(OS(=O)(=O)O)cc4CC[C@H]3[C@@H]1CCC2=O [ESTRONE SULFURIC ACID]	substrate [+]
